Assay results from US11820764B2, “Compound modulating GSK-3 activity” (National Institute of Immunology, priority 2020, dated 2023).

What was measured:
[1] = Blood brain barrier crossing, mass spectrometry of cerebrospinal fluid of treated mice; assay type: in vivo; conditions: CSF of treated animals
[2] = Pharmacokinetics in rats, plasma HPLC; assay type: in vivo; conditions: both sexes, rat, 15 ug/kg
Method: The rats were randomly divided into two groups (I and II) in half respectively male and female. A dose of 15 μg/kg of Compound Y was administered to group I and II. Serial blood samples (0.5 mL) were collected into heparinized tubes from the retro-orbital region at 1, 2, 4, 6, 12, 24, 36, 48, and 72 h. Samples were immediately centrifuged at 12,000 rpm for 10 min and stored at −20° C. until analysis. Plasma was processed for HPLC analysis. 100 μl Acetonitrile was added in 100 μl plasma (1:1) and centrifuge at 12,000 for 5 minute. Supernatant transferred in a clean tube. Dried under Nitrogen gas 200 μl Acetonitrile: water (1:1) was added in dry tube and centrifuge at 12,000 rpm for 15 minute. Filtered with 0.2 μm membrane filter. 20 μl samples were used for analysis in HPLC. […] (FIG. 5)

O=C(O)CCCCCN1C(=O)/C(=C/c2c[nH]c3ccccc23)SC1=S [SG001]
crossing of blood brain barrier (detection in CSF) [1]: able to cross the blood brain barrier | Cmax [2]: 27 nM | Tmax [2]: 48 h
